This note sets out measurements from patent US20250019387A1 (Frontier Medicines Corporation, priority 0001, published 2025).

Assay [1] deals with KRAS G12C and cRAF (Ras-binding domain) interaction (Homo sapiens (Human), UniProt P01116, C118S/C51S/C80L/G12C). Description: Inhibition of KRAS G12C and cRAF binding (AlphaScreen). The settings on record: GMPPNP-loaded KRAS G12C, 19-20 hours incubation with compound; read-out: IC50 (Inhibition of KRAS G12C and cRAF Binding). The method, boiled down: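 Compounds (DMSO) preincubated 19-20 h at room temperature, then RBD with streptavidin donor and glutathione acceptor beads added in 25 mM Hepes pH 7.4, 150 mM NaCl, 5 mM MgCl2, 0.01% Triton X-100, 2% DMSO for 60-90 min. Emission 570 nm (excitation 680 nm); IC50 by 4-parameter fit. Counter-screen used biotin-AviTag-GST instead of RBD.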

The target in assay [2] is KRAS G12C and PI3Ka (Ras-binding domain) interaction (Homo sapiens (Human), UniProt P01116, C118S/C51S/C80L/G12C). Briefly: Inhibition of KRAS G12C and PI3Ka binding (AlphaScreen). The settings on record: GMPPNP-loaded KRAS G12C, 2 hours incubation with compound; read-out: PI3Ka RBD IC50. The protocol:
Compounds were diluted in 100% DMSO and each compound concentration was spotted at 200 nl/well onto low volume, white 384 well plates. […] The KRAS GT2C was diluted in 25 mM Hepes, pH 7.4, 150 mM NaCl, 5 mMv MgCl2, 0.0100 TritonX-100 and 10 μM GMPPNP and added at 10 ul/well to compound-spotted plates resulting in a […] concentration of 2%. Plates were incubated for 2 hours. A mixture of RBD and the AlphaScreen streptavidin donor and nickel chelate acceptor beads diluted in 25 mMv Hepes, pH 7.4, 150 mMv NaCl, 5 mM MgCl2, 0.0100 TritonX-100 and 2% DMSO was then added at 10 ul/well and incubated for 60-90 minutes before the samples were read for emission at 570 nm after excitation of the donor beads at 680 nm. All incubations were performed at room temperature. […] Final assay conditions were 1.5 nM KRAS GT2C, 100 nM RBD, 1.25 ug/ml of AlphaScreen donor beads and 10 μg/ml AlphaLISA acceptor beads. IC50S were determined using nonlinear regression fit of [inhibitor]vs. response (4 parameters). […]

Chain of KRAS G12C and PI3Ka (Ras-binding domain) interaction (P01116 other isoform, or with tags, fused parts or gaps G12C/C51S/C80L/C118S): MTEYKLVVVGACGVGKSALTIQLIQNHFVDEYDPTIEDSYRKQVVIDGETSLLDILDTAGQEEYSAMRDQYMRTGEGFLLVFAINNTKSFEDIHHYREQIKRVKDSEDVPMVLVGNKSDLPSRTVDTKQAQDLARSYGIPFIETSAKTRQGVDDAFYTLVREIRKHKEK
Chain of KRAS G12C and cRAF (Ras-binding domain) interaction (P01116 other isoform, or with tags, fused parts or gaps G12C/C51S/C80L/C118S): as above

`CN(c1nc(OC[C@@]23CCCN2C[C@H](F)C3)nc2c(F)c(-c3cccc4cccc(Cl)c34)ncc12)[C@@H]1CCN(C(=O)/C=C/c2nc([C@H]3C[C@@H]3F)no2)C1` [Example 140, (E)-1-((R)-3-((7-(8-chloronaphthalen-1-yl)-8-fluoro-2-(((2R,7aS)-2-fluorohexahydro-1H-pyrrolizin-7a-yl)methoxy)pyrido[4,3-d]pyrimidin-4-yl)(methyl)amino)pyrrolidin-1-yl)-3-(3-((1R,2S)-2-fluorocyclopropyl)-1,2,4-oxadiazol-5-yl)prop-2-en-1-one]: the IC50 in assay [1] and in assay [2] was 10 to 100 nM in each case.
For the molecule `CN(c1nc(OCC23CCCN2CCC3)nc2c1CCN(c1cccc3cccc(Cl)c13)C2)[C@@H]1CCN(C(=O)/C=C/c2nc(C3CC3)no2)C1` [Example 161, (R,E)-1-(3-((7-(8-chloronaphthalen-1-yl)-2-((hexahydro-1H-pyrrolizin-7a-yl)methoxy)-5,6,7,8-tetrahydropyrido[3,4-d]pyrimidin-4-yl)(methyl)amino)pyrrolidin-1-yl)-3-(3-cyclopropyl-1,2,4-oxadiazol-5-yl)prop-2-en-1-one], the IC50 in assay [1] and in assay [2] was 10 to 100 nM throughout.
`CCc1noc(/C=C/C(=O)N2CC(CN(C)c3nc(OCC45CCCN4CCC5)nc4c3CCN(c3cccc5cccc(Cl)c35)C4)C2)n1` [Example 168, (E)-1-(3-(((7-(8-chloronaphthalen-1-yl)-2-((hexahydro-1H-pyrrolizin-7a-yl)methoxy)-5,6,7,8-tetrahydropyrido[3,4-d]pyrimidin-4-yl)(methyl)amino)methyl)azetidin-1-yl)-3-(3-ethyl-1,2,4-oxadiazol-5-yl)prop-2-en-1-one]: the IC50 in assay [1] and in assay [2] was 10 to 100 nM each time.
In the case of `CN(CC1CN(C(=O)/C=C/c2nc(C3CC3)no2)C1)c1nc(OCC23CCCN2CCC3)nc2c1CCN(c1cccc3cccc(Cl)c13)C2` [Example 172, (E)-1-(3-(((7-(8-chloronaphthalen-1-yl)-2-((hexahydro-1H-pyrrolizin-7a-yl)methoxy)-5,6,7,8-tetrahydropyrido[3,4-d]pyrimidin-4-yl)(methyl)amino)methyl)azetidin-1-yl)-3-(3-cyclopropyl-1,2,4-oxadiazol-5-yl)prop-2-en-1-one], the IC50 in assay [1] and in assay [2] was 10 to 100 nM throughout.
As for `CN(CC1CN(C(=O)/C=C/c2nc(C3CC3)no2)C1)c1nc(OCC23CCCN2CCC3)nc2c(F)c(-c3cccc4cccc(Cl)c34)ncc12` [Example 173, (E)-1-(3-(((7-(8-chloronaphthalen-1-yl)-8-fluoro-2-((tetrahydro-1H-pyrrolizin-7a(5H)-yl)methoxy)pyrido[4,3-d]pyrimidin-4-yl)(methyl)amino)methyl)azetidin-1-yl)-3-(3-cyclopropyl-1,2,4-oxadiazol-5-yl)prop-2-en-1-one], the concentration for half-maximal inhibition (IC50) in assay [1] and in assay [2] was 10 to 100 nM each time.
Take `CN1C[C@H](O)C[C@H]1C#CC(=O)N1CC[C@@H](N(C)c2nc(OC[C@@]34CCCN3C[C@H](F)C4)nc3c(F)c(-c4cccc5cccc(Cl)c45)ncc23)C1` [Example 247, 1-((R)-3-((7-(8-chloronaphthalen-1-yl)-8-fluoro-2-(((2R,7aS)-2-fluorohexahydro-1H-pyrrolizin-7a-yl)methoxy)pyrido[4,3-d]pyrimidin-4-yl)(methyl)amino)pyrrolidin-1-yl)-3-((2S,4R)-4-hydroxy-1-methylpyrrolidin-2-yl)prop-2-yn-1-one]: the values for the concentration for half-maximal inhibition (IC50) in assay [1] and in assay [2] were less than 10 nM and 10 to 100 nM, respectively.
Consider `CN1C[C@@H](O)C[C@@H]1C#CC(=O)N1CC[C@@H](N(C)c2nc(OC[C@@]34CCCN3C[C@H](F)C4)nc3c(F)c(-c4cccc5cccc(Cl)c45)ncc23)C1` [Example 248, 1-((R)-3-((7-(8-chloronaphthalen-1-yl)-8-fluoro-2-(((2R,7aS)-2-fluorohexahydro-1H-pyrrolizin-7a-yl)methoxy)pyrido[4,3-d]pyrimidin-4-yl)(methyl)amino)pyrrolidin-1-yl)-3-((2R,4S)-4-hydroxy-1-methylpyrrolidin-2-yl)prop-2-yn-1-one], for which the 50% inhibitory concentration (IC50) in assay [1] and in assay [2] was 10 to 100 nM throughout.
In the case of `C=CC(=O)N1CC[C@@H](N(C)c2nc(OC[C@@]34CCCN3C[C@H](F)C4)nc3c(F)c(-c4cccc5cccc(F)c45)ncc23)C1` [Example 258, 1-((R)-3-((8-fluoro-7-(8-fluoronaphthalen-1-yl)-2-(((2R,7aS)-2-fluorotetrahydro-1H-pyrrolizin-7a(5H)-yl)methoxy)pyrido[4,3-d]pyrimidin-4-yl)(methyl)amino)pyrrolidin-1-yl)prop-2-en-1-one], the half-maximal inhibitory concentration (IC50) in assay [1] and in assay [2] was 10 to 100 nM throughout.
Turning to `C=CC(=O)N1CC[C@@H](N(C)c2nc(OCC34CCCN3CCC4)nc3c(F)c(-c4cccc5cccc(F)c45)ncc23)C1` [Example 259, (R)-1-(3-((8-fluoro-7-(8-fluoronaphthalen-1-yl)-2-((tetrahydro-1H-pyrrolizin-7a(5H)-yl)methoxy)pyrido[4,3-d]pyrimidin-4-yl)(methyl)amino)pyrrolidin-1-yl)prop-2-en-1-one], the concentration for half-maximal inhibition (IC50) in assay [1] lay in the range of 100 to 500 nM; in assay [2], 10 to 100 nM.
